“Also recorded” adds a separate entry of the source.
Tests used:
8505C cells [1] = test: Reactive oxygen species quantification (H2DCFDA); type: cell-based, human; conditions: for ROS in CP-treated cells with the exogenous agent: 8505C cells treated with CP-91,149
Protocol: Quantification of Reactive Oxygen Species—Thyroid cells (1.0-2.0×10^4) were seeded in a black 96 well plate in 200 μl CTM and allowed to adhere overnight. Wells were washed with PBS and incubated with or without 25 μM H2DCFDA for 45 minutes at 37° C. in a non-CO2 incubator with compounds of interest diluted in phenol-red free RPMI (supplemented with 2 mM glutamine and 10% charcoal-stripped serum). Wells were washed with PBS and received compounds of interest diluted in phenol-red free, supplemented RPMI and incubated at 37° C. in a SpectraMax M4 Microplate Reader (Molecular Devices) to record fluorescent measurements (Ex/Em=485/535 nm) every 15 minutes overnight. Maximum fluorescence intensity was determined (~6 hours), background signal (—H2DCFDA) was subtracted from each group, and corrected values were normalized to the vehicle control.

8505C cells [2] = test: SRB cell viability assay in ATC cells; type: cell-based, human; conditions: for cell viability of CP-treated cells with the exogenous agent: 8505C cells treated with CP-91,149
Protocol: In Vitro Cell Staining for Measuring Drug Efficacy—Thyroid cells (4.0×10^3) were seeded in 96 well plates with 100 μl CTM and allowed to adhere overnight. 100 μl of CTM containing 2× concentration of compound was overlayed in each well for 48 hours unless otherwise indicated. Each well then received 100 μl of 10% w/v cold trichloroacetic acid (Fisher) and incubated at 4° C. for 1 hour to fix the cells. Each well was rinsed 3× with DI H2O and stained with 100 μl 0.057% w/v sulforhodamine B (SRB, Sigma-Aldrich) for 30 minutes at room temperature in the dark. Wells were washed 4× with 300 μl 1% v/v acetic acid (Fisher), and remaining SRB stain was solubilized with 200 μl of 10 mM Tris buffer, pH 10.5 (Fisher). Absorbance was measured at 564 nm with a Synergy 2 Multi-Detection Microplate Reader (Agilent Technologies) and normalized to a vehicle control. Drug synergy was evaluated using the coefficient of drug interaction (CDI) formula: CDI=AB/(A×B)×100, where AB is the percent remaining cells of an indicated combination treatment, A is the average percent remaining cells of agent 1 alone, and B is the average percent remaining cells of agent 2 alone. […] Hao et al., “Effect of Lumiracoxib on Proliferation and Apoptosis of Human Nonsmall Cell Lung Cancer Cells In vitro,” Chin Med J (Engl) 121:602-607 (2008), which is hereby incorporated by reference in its entirety. […]

8505C cells [3] = test: Drug synergy by coefficient of drug interaction (SRB assay); type: cell-based, human; conditions: for drug interaction with 6-AN (coefficient of drug interaction class): combination with 6-AN (PPP inhibition)
Protocol: In Vitro Cell Staining for Measuring Drug Efficacy—Thyroid cells (4.0×10^3) were seeded in 96 well plates with 100 μl CTM and allowed to adhere overnight. 100 μl of CTM containing 2× concentration of compound was overlayed in each well for 48 hours unless otherwise indicated. Each well then received 100 μl of 10% w/v cold trichloroacetic acid (Fisher) and incubated at 4° C. for 1 hour to fix the cells. Each well was rinsed 3× with DI H2O and stained with 100 μl 0.057% w/v sulforhodamine B (SRB, Sigma-Aldrich) for 30 minutes at room temperature in the dark. Wells were washed 4× with 300 μl 1% v/v acetic acid (Fisher), and remaining SRB stain was solubilized with 200 μl of 10 mM Tris buffer, pH 10.5 (Fisher). Absorbance was measured at 564 nm with a Synergy 2 Multi-Detection Microplate Reader (Agilent Technologies) and normalized to a vehicle control. Drug synergy was evaluated using the coefficient of drug interaction (CDI) formula: CDI=AB/(A×B)×100, where AB is the percent remaining cells of an indicated combination treatment, A is the average percent remaining cells of agent 1 alone, and B is the average percent remaining cells of agent 2 alone. […] Hao et al., “Effect of Lumiracoxib on Proliferation and Apoptosis of Human Nonsmall Cell Lung Cancer Cells In vitro,” Chin Med J (Engl) 121:602-607 (2008), which is hereby incorporated by reference in its entirety.

ATC xenograft = conditions: cited from earlier work
8505C cells [4] = test: Metabolic flux analysis (Seahorse ECAR and OCR); type: cell-based, human; conditions: 8505C cells
Protocol: Metabolic Flux Analysis—Thyroid cells (5.0×10^4) were plated in a 96 well Seahorse culture plate with compounds of interest diluted in 200 μl CTM for 24 hours. Cells were washed with PBS and equilibrated for 1 hour at 37° C. in a non-CO2 incubator with compounds of interest diluted in Seahorse RPMI (supplemented with 11.1 mM glucose, 2 mM glutamine, and 5% serum) before analysis of OCR and ECAR in a Metabolic Flux Analyzer (Seahorse Bioscience, North Billerica, MA 96XP).

[5] = tested on: Pancreatic adenocarcinoma cells; conditions: cited from earlier work
ATC = conditions: in vitro; cited from earlier work
8505C tumors = test: 8505C xenograft tumor growth in nude mice; type: in vivo, mouse; conditions: intraperitoneal, 50 mg/kg CP-91,149, 10 mg/kg sorafenib, 6-7 days a week
Protocol: Ethics statement and animal modeling—All animal procedures were approved by Institutional Animal Care and Use Committee (IACUC) at the University of Vermont. All animals were maintained in pathogen-free conditions and cared for in accordance with IACUC policies and certification. All surgeries were performed with isoflurane anesthesia. Temperature-controlled post-surgical monitoring was implemented to minimize suffering. Mice carrying anaplastic thyroid tumors were euthanized at designated time points for tumor collection. Signs of ulceration or a maximum individual tumor size of 2000 mm^3 were used as a protocol-enforced endpoint.
Mice were given food and water ad libitum. […] These doses were based on previous reports.

HepG2 cells = conditions: HepG2 cells; cited from earlier work
[6] = ATC cell viability, combination with CP-91,149

## O=CC[C@@H](O)[C@H](O)[C@H](O)CO [2-DG, 2-deoxyglucose]
8505C cells [1]; 8505C ATC cells
  reactive oxygen species (ROS) levels: only modestly increased ROS levels
8505C cells [1]; 8505C cells
  ROS levels with excess glucose: only in CP-treated cells
8505C cells [2]; 8505C cells, 48 hours
  cell viability with excess (2 mM) pyruvate: could be rescued
  cell viability with excess (25 mM) glucose: rescued cell viability
  cell viability with pyruvate depletion: only significantly impacted the 2-DG-treated cells
8505C cells [3]; 8505C cells, 48 hours
  drug interaction with 6-AN (coefficient of drug interaction class): drug antagonism
8505C cells [3]; [6]
  CDI values in combination with CP-91,149: ~1.0
  drug interaction with CP-91,149 (coefficient of drug interaction class): drug additivity
ATC xenograft
  lactate production: reduced lactate production
  tumor size: failed to significantly reduce tumor size
8505C cells [4]
  extracellular acidification rate (ECAR): significantly inhibited

## O=C(O)C(=O)CBr [3-BP, 3-bromopyruvic acid]
8505C cells [3]; [6]
  drug interaction with CP-91,149 (coefficient of drug interaction class): failed to achieve synergy

## NC(=O)c1ccc(N)nc1 [6-AN, 6-aminonicotinamide]
8505C cells [3]; [6]
  drug interaction with CP-91,149 (coefficient of drug interaction class): remarkable drug synergy

## O=C(N[C@@H](Cc1ccc(F)cc1)C(=O)N1CCC(O)CC1)c1cc2cc(Cl)ccc2[nH]1 [CP-320626, 5-chloro-N-[(2S)-3-(4-fluorophenyl)-1-(4-hydroxypiperidin-1-yl)-1-oxopropan-2-yl]-1H-indole-2-carboxamide]
[5]
  cellular metabolism: inhibited cellular respiration, the PPP, anaplerosis, and synthesis of ribose and fatty acids
  sensitivity of cells: sensitive

## CC(=O)N[C@@H](CS)C(=O)O [N-acetylcysteine]
8505C cells [1]
  ROS in CP-treated cells with the exogenous agent: ablated
8505C cells [1]; listed as N-acetyl cysteine
  ROS in CP-treated cells with the exogenous agent: attenuated
8505C cells [2]; listed as N-acetyl cysteine
  cell viability of CP-treated cells with the exogenous agent: can rescue ATC cells from CP-mediated loss in cell viability
8505C cells [2]; listed as NAC
  cell viability of CP-treated cells with the exogenous agent: partially rescued

## NC(=O)C1=CN([C@@H]2O[C@H](COP(=O)(O)OP(=O)(O)OC[C@H]3O[C@@H](n4cnc5c(N)ncnc54)[C@H](OP(=O)(O)O)[C@@H]3O)[C@@H](O)[C@H]2O)C=CC1 [NADPH]
8505C cells [1]; 8505C cells treated with 2-DG, replete media
  ROS in 2-DG-treated cells with the exogenous agent: reduced ROS in both treatment groups
8505C cells [1]
  ROS in CP-treated cells with the exogenous agent: ablated; also recorded: reduced ROS in both treatment groups; also recorded: attenuated
8505C cells [2]; 8505C cells treated with 2-DG, 48 hours, replete media
  cell viability of 2-DG-treated cells with the exogenous agent: only rescued cell viability in the CP-treated cells
8505C cells [2]
  cell viability of CP-treated cells with the exogenous agent: partially rescued; also recorded: only rescued cell viability in the CP-treated cells; also recorded: can rescue ATC cells from CP-mediated loss in cell viability

## Nc1cc(C(F)(F)F)c(-c2cc(N3CCOCC3)nc(N3CCOCC3)n2)cn1 [buparlisib, 5-(2,6-dimorpholin-4-ylpyrimidin-4-yl)-4-(trifluoromethyl)pyridin-2-amine]
8505C cells [3]; [6]
  drug interaction with CP-91,149 (coefficient of drug interaction class): drug additivity rather than synergy

## COc1cccc2c1C(=O)c1c(O)c3c(c(O)c1C2=O)C[C@@](O)(C(=O)CO)C[C@@H]3O[C@H]1C[C@H](N)[C@H](O)[C@H](C)O1 [doxorubicin]
8505C cells [3]; [6]
  drug interaction with CP-91,149 (coefficient of drug interaction class): did not achieve synergy

## COc1cc2nccc(Oc3ccc(NC(=O)NC4CC4)c(Cl)c3)c2cc1C(N)=O [lenvatinib, 4-[3-chloro-4-(cyclopropylcarbamoylamino)phenoxy]-7-methoxyquinoline-6-carboxamide]
8505C cells [3]; [6]
  drug interaction with CP-91,149 (coefficient of drug interaction class): drug additivity rather than synergy

## CN(C)C(=N)N=C(N)N [metformin]
ATC
  ATC proliferation: limit ATC proliferation in vitro

## CC(=O)c1c(C)c2cnc(Nc3ccc(N4CCNCC4)cn3)nc2n(C2CCCC2)c1=O [palbociclib, 6-acetyl-8-cyclopentyl-5-methyl-2-[(5-piperazin-1-ylpyridin-2-yl)amino]pyrido[6,5-d]pyrimidin-7-one]
8505C cells [3]; [6]
  drug interaction with CP-91,149 (coefficient of drug interaction class): did not achieve synergy

## CNC(=O)c1cc(Oc2ccc(NC(=O)Nc3ccc(Cl)c(C(F)(F)F)c3)cc2)ccn1 [sorafenib, 4-[4-[[4-chloro-3-(trifluoromethyl)phenyl]carbamoylamino]phenoxy]-N-methylpyridine-2-carboxamide]
8505C cells [3]; 8505C cells, 48 hours
  drug interaction with 6-AN (coefficient of drug interaction class): drug synergy; also recorded: synergistic
  drug interaction with inhibition of glycolysis: not glycolysis
8505C cells [3]; [6]
  drug interaction with CP-91,149 (coefficient of drug interaction class): high degree of drug synergy; also recorded: profound drug synergy
8505C tumors
  tumor growth: notably stunted
HepG2 cells
  synergy with CP-91,149: displayed synergy

From patent publication US20260199289A1, “USE OF GLYCOGEN METABOLISM INHIBITORS FOR THE TREATMENT OF CANCER” (THE UNIVERSITY OF VERMONT AND STATE AGRICULTURAL COLLEGE, priority 2022, published 2026)
